In publication PMC4811591, “Role of the Substrate Specificity-Defining Residues of Human SIRT5 in Modulating the Structural Stability and Inhibitory Features of the Enzyme” (PLoS ONE, 2016):
Where a chain is given by its changes, count along the chain named. Blank lines part the entries; values can stand above or below the compound they belong to.

What was measured:
SIRT5 wild type [1] = target: T1, SIRT5 wild type (Homo sapiens, UniProt Q9NXA8); assay: SIRT5 wild type desuccinylation reaction, trypsin coupled fluorescence assay with Ac-SucLys-AMC; type: biochemical; conditions: for IC50: SIRT5 desuccinylation
T1 construct: SIRT1 (193–747) and SIRT5 (51–301) were cloned into the pLIC-His expression vector; His tag (pLIC-His vector); made in house; host or cells: E. coli BL21(DE3) Star
T1 sequence (Q9NXA8 51-301): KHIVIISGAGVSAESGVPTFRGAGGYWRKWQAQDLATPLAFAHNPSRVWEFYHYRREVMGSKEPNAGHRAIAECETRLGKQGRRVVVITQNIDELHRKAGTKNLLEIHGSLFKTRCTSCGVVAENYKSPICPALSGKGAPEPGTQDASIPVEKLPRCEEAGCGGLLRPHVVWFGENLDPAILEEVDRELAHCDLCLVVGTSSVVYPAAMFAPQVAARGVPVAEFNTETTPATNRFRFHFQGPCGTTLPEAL
Protocol: (§1) The sirtuin catalyzed deacetylase and desuccinylase reactions were measured via the trypsin coupled assay system as described by Madsen et al. […] Since trypsin was used as a coupling enzyme, its concentration was optimized to ensure the emergence of minimal or negligible lag-phase prior to the onset of the steady state phase. […] The steady state rates of the enzyme catalyzed reactions were derived from the time dependent changes in the fluorescence signal, and the data were analyzed by the ternary complex kinetic mechanism (Eq 4) via Grafit 4 software.
(§2) The steady-state kinetic data were fitted globally by the competitive, mixed, and noncompetitive inhibition models using the DYNAFIT software based on the rapid-equilibrium approximation. All the parameters were allowed to float except for the enzyme concentration. The software utilizes several model-discrimination criteria, including the second order Akaike Information Criterion (AIC), so that the best model out of the three different candidates could be identified.
(§3) Other reaction conditions were the same as described above. The data were fitted by Eq 5 by Grafit 4.0.

SIRT5 Y102A [2] = target: T2, SIRT5 Y102A (Homo sapiens, UniProt Q9NXA8, Y102A); assay: SIRT5 Y102A desuccinylation reaction, trypsin coupled assay with Ac-SucLys-AMC; type: biochemical
T2 construct: SIRT1 (193–747) and SIRT5 (51–301) were cloned into the pLIC-His expression vector; His tag (pLIC-His vector); made in house; host or cells: E. coli BL21(DE3) Star
T2 sequence (Q9NXA8 51-301 Y102A): T1 sequence (Q9NXA8 51-301) with Y52A
Protocol: as §1, §2, §3

SIRT1 [3] = target: T3, SIRT1 (Homo sapiens, UniProt Q96EB6); assay: SIRT1 desuccinylation reaction, trypsin coupled assay with Ac-SucLys-AMC; type: biochemical; conditions: succinyl substrate
T3 construct: SIRT1 (193–747) and SIRT5 (51–301) were cloned into the pLIC-His expression vector; His tag (pLIC-His vector); made in house; host or cells: E. coli BL21(DE3) Star
T3 sequence (Q96EB6 193-747): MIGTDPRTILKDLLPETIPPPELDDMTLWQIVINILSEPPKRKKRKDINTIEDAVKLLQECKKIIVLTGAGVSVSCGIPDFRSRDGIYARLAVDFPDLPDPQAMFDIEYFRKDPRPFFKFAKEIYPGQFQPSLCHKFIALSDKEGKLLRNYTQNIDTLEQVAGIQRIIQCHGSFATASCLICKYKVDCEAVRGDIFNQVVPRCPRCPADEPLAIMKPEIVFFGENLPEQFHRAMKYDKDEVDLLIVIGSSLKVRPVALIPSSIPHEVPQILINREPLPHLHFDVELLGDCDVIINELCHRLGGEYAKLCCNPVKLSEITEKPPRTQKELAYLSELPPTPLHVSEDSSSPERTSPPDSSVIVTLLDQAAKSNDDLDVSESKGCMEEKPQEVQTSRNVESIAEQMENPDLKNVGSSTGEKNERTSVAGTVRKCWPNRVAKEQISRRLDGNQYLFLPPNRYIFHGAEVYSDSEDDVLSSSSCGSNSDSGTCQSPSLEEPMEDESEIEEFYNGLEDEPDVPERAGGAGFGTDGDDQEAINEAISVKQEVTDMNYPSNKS
Protocol: (§4) The sirtuin catalyzed deacetylase and desuccinylase reactions were measured via the trypsin coupled assay system as described by Madsen et al. The enzyme reactions were carried out at 25°C in 50 mM Tris-HCl assay buffer, pH 8.0, containing 137 mM NaCl, 2.7 mM KCl, 1 mM MgCl2, and 1 mg/mL bovine serum albumin. Since trypsin was used as a coupling enzyme, its concentration was optimized to ensure the emergence of minimal or negligible lag-phase prior to the onset of the steady state phase. The bi-substrate kinetic experiments were performed by varying the concentrations of NAD^+ (from 100 to 500 μM) and Ac-SucLys-AMC or Fluor-de-lys® substrates (from 100 μM to 1200 μM) using 0.8 μM trypsin as the coupling enzyme. The steady state rates of the enzyme catalyzed reactions were derived from the time dependent changes in the fluorescence signal, and the data were analyzed by the ternary complex kinetic mechanism (Eq 4) via Grafit 4 software.

SIRT5 Y102A [4] = target: T2, SIRT5 Y102A; assay: SIRT5 Y102A deacetylation reaction, trypsin coupled assay with Fluor-de-lys; type: biochemical
Protocol: as §1, §2, §3

SIRT5 R105I [5] = target: T4, SIRT5 R105I (Homo sapiens, UniProt Q9NXA8, R105I); assay: SIRT5 R105I deacetylation reaction, trypsin coupled assay with Fluor-de-lys; type: biochemical
T4 construct: SIRT1 (193–747) and SIRT5 (51–301) were cloned into the pLIC-His expression vector; His tag (pLIC-His vector); made in house; host or cells: E. coli BL21(DE3) Star
T4 sequence (Q9NXA8 51-301 R105I): T1 sequence (Q9NXA8 51-301) with R55I
Protocol: as §1, §2, §3

SIRT5 R105I [6] = target: T4, SIRT5 R105I; assay: SIRT5 R105I desuccinylation reaction, trypsin coupled assay with Ac-SucLys-AMC; type: biochemical
Protocol: as §4
(§5) The steady-state kinetic data were fitted globally by the competitive, mixed, and noncompetitive inhibition models using the DYNAFIT software based on the rapid-equilibrium approximation. All the parameters were allowed to float except for the enzyme concentration. […]

SIRT5 Y102A/R105I [7] = target: T5, SIRT5 Y102A/R105I (Homo sapiens, UniProt Q9NXA8, R105I/Y102A); assay: Isothermal titration calorimetry, binding of EX527 to SIRT5 Y102A/R105I; conditions: ITC
T5 construct: SIRT1 (193–747) and SIRT5 (51–301) were cloned into the pLIC-His expression vector; His tag (pLIC-His vector); made in house; host or cells: E. coli BL21(DE3) Star
T5 sequence (Q9NXA8 51-301 Y102A/R105I): T1 sequence (Q9NXA8 51-301) with Y52A, R55I
Protocol: (§6) Isothermal titration calorimetric experiment was performed in duplicates on a VP-ITC device (Microcal Inc., Northampton, MA). Prior to the titration experiment, both enzyme and inhibitor were thoroughly degassed under vacuum. The sample cell was filled with 1.8 mL (effective volume = 1.4 mL) of 20 μM Y102A/R105I mutant SIRT5 and 0 or 10 mM NAD^+ in 50 mM HEPES buffer, pH 7.5, containing 100 mM NaCl, 10% glycerol and 1 mM TCEP. […] The data were analyzed by the ITC data analysis module of Origin Software using the single-site binding model as described by Wiseman et al. All the parameters were allowed to vary during the curve-fitting. […] The binding free energy (ΔG°) and the entropic (ΔS°) changes were calculated by Eqs 6 and 7, respectively ΔG°=−RTlnKa (6) ΔS°=ΔH°−ΔG°/T (7)
The latter value translates to the ΔG° of binding as being equal to −7.3 ± 0.1 kcal/mol. Given the ΔH° and ΔG° values, the TΔS° was calculated to be 2.03 kcal/mol.

SIRT5 wild type [8] = target: T1, SIRT5 wild type; assay: SIRT5 wild type deacetylation reaction, trypsin coupled fluorescence assay with Fluor-de-lys; type: biochemical; conditions: 50 μM EX527; substrate not stated in the sentence (method: 100 μM Fluor-de-lys, 500 μM NAD^+)
Protocol: as §4, §5

wild type SIRT5 = target: T6, wild type SIRT5 (Homo sapiens, UniProt Q9NXA8); assay: Isothermal titration calorimetry, binding of EX527 to wild type SIRT5; conditions: ITC, either in the absence or the presence of NAD^+ (10 mM)
T6 construct: SIRT1 (193–747) and SIRT5 (51–301) were cloned into the pLIC-His expression vector; His tag (pLIC-His vector); made in house; host or cells: E. coli BL21(DE3) Star
T6 sequence (Q9NXA8 51-301): T1 sequence (Q9NXA8 51-301)

SIRT5 Y102A/R105I [9] = target: T5, SIRT5 Y102A/R105I; assay: SIRT5 Y102A/R105I deacetylation reaction, trypsin coupled assay with Fluor-de-lys; type: biochemical
Protocol: as §1, §2, §3

SIRT5 = tested on: SIRT5; design: method as in PMID 22583019; conditions: same succinylated substrate, fixed substrate concentration; read-out: Km,NAD (apparent); cited from earlier work
SIRT1 [10] = target: T3, SIRT1; assay: SIRT1 deacetylation reaction, trypsin coupled assay with Fluor-de-lys; type: biochemical; conditions: for IC50: SIRT1 deacetylation
Protocol: as §1, §2, §3

SIRT5-substrate complex = target: T7, SIRT5-substrate complex (Homo sapiens, UniProt Q9NXA8); assay: Isothermal titration calorimetry, binding of nicotinamide to SIRT5-substrate complex; conditions: ITC, 20 μM SIRT5 in the presence of 1 mM Ac-Suclys-AMC
T7 construct: SIRT1 (193–747) and SIRT5 (51–301) were cloned into the pLIC-His expression vector; His tag (pLIC-His vector); made in house; host or cells: E. coli BL21(DE3) Star
T7 sequence (Q9NXA8 51-301): T1 sequence (Q9NXA8 51-301)
Protocol: as §6, with “vacuum.” for “vacuum. The sample cell was filled with 1.8 mL (effective volume = 1.4 mL) of 20 μM Y102A/R105I mutant SIRT5 and 0 or 10 mM NAD^+ in 50 mM HEPES buffer, pH 7.5, containing 100 mM NaCl, 10% glycerol and 1 mM TCEP.”
(TIF) Click here for additional data file.

[11] = desuccinylation, succinyl substrate
[12] = deacetylation, acetylated substrate, at 800 μM nicotinamide
[13] = deacetylation, against NAD^+, 100 μM Fluo-de-lys, NAD^+ 40 to 300 μM
[14] = deacetylation, against NAD^+, 500 μM Fluo-de-lys, NAD^+ 200 to 1300 μM

kcat (SIRT5 wild type [1]; [11]): 383.2 ± 38.3 ×10^−5 s^-1
Km (SIRT5 wild type [1]; desuccinylation, succinyl substrate, 25°C, pH 8.0, read-out: Km,sub): 290 ± 29 µM
kcat (SIRT5 Y102A [2]; [11]): 27.4 ± 4.9 ×10^−5 s^-1
Km (SIRT5 Y102A [2]; desuccinylation, succinyl substrate, read-out: Km,sub): 300 ± 54 µM
desuccinylase activity (SIRT1 [3]): no detectable desuccinylase activity
Compound: CC(=O)N[C@@H](CCCCNC(=O)CCC(=O)O)C(=O)Nc1ccc2c(C)cc(=O)oc2c1 [Ac-SucLys-AMC]

Compound: NC(=O)C1CCCc2c1[nH]c1ccc(Cl)cc21 (centres unmarked) [EX527, 6-chloro-2,3,4,9-tetrahydro-1H-carbazole-1-carboxamide]
inhibition at 50 µM (SIRT5 Y102A [4]): ~14%
inhibition by EX527 (SIRT5 Y102A [2]; 50 μM EX527, succinylated substrate): no inhibition
inhibition at 50 µM (SIRT5 R105I [5]): ~22%
inhibition at 50 µM (SIRT5 R105I [6]): ~22%
binding (SIRT5 Y102A/R105I [7]; in the absence of NAD^+): binds weakly
ΔH° (SIRT5 Y102A/R105I [7]; presence of 10 mM NAD^+, pH 7.5, 25°C): -5.3 ± 0.1 kcal/mol
stoichiometry n (SIRT5 Y102A/R105I [7]; presence of 10 mM NAD^+, pH 7.5, 25°C, single site binding model): 1.2
ΔG° of binding (SIRT5 Y102A/R105I [7]; presence of 10 mM NAD^+, calculated from Ka): -7.3 ± 0.1 kcal/mol
TΔS° (SIRT5 Y102A/R105I [7]; presence of 10 mM NAD^+, calculated from ΔH° and ΔG°): 2.03 kcal/mol
inhibition by EX527 (SIRT5 wild type [8]): not inhibited
binding (heat signals) (wild type SIRT5): only miniscule heat signals
IC50 (SIRT5 Y102A/R105I [9]): 0.0217 ± 0.001 mM

Compound: NC(=O)c1ccc[n+]([C@@H]2O[C@H](COP(=O)([O-])OP(=O)(O)OC[C@H]3O[C@@H](n4cnc5c(N)ncnc54)[C@H](O)[C@@H]3O)[C@@H](O)[C@H]2O)c1 [NAD, nicotinamide adenine dinucleotide]
Km (SIRT5): 150 ± 45 µM

Compound: NC(=O)c1cccnc1 [Nicotinamide]
Inhibition Mode (SIRT5 wild type [1]; desuccinylation, against NAD^+, 100 μM Ac-SucLys-AMC, NAD^+ 40 to 300 μM): Competitive
% inhibition (SIRT5 Y102A [4]; [12]): N/A, 36% inhibition at 800μM
inhibition at 800 µM (SIRT5 Y102A [4]; [12]): ~36%
Inhibition Mode (SIRT1 [10]; [13]): Mixed
Ki’ (mixed inhibition) (SIRT1 [10]; [13]): 0.3405 ± 0.1024 mM
Inhibition Mode (SIRT5 Y102A [2]; desuccinylation, against NAD^+, 500 μM Ac-SucLys-AMC, NAD^+ 70 to 800 μM): Competitive
inhibition at 800 µM (SIRT5 R105I [5]): 40%
Inhibition Mode (SIRT5 Y102A/R105I [9]; [14]): Mixed
Ki’ (mixed inhibition) (SIRT5 Y102A/R105I [9]; [14]): 0.2672 ± 0.0524 mM
Ka (SIRT5-substrate complex): (2.5 ± 0.3) × 10^4 M^-1

IC50 (SIRT5 wild type [1]; in the presence of 50 μM NAD^+): 11.1 ± 2.2 mM
IC50 (SIRT5 wild type [1]; in the presence of 5 mM NAD^+): 17.1 ± 4 mM
IC50 (SIRT1 [10]; in the presence of 50 μM NAD^+): 7 ± 2.9 mM
IC50 (SIRT1 [10]; in the presence of 5 mM NAD^+): 8.9 ± 3.3 mM
Compound: NC(=O)c1ccncc1 [isonicotinamide]
